Test results taken from patent US9150545B2, “Carboxamide compounds and their use as calpain inhibitors V” (ABBVIE DEUTSCHLAND GMBH & CO. KG, priority 2012, dated 2015).
Where a name gives a salt, the structure may show the parent alone.

The molecules below were run against T1, calpain-I isolated from human erythrocytes (Homo sapiens, UniProt P07384) (assay: Calpain I kinetic fluorescence enzyme inhibition assay). Conditions: apparent Ki from IC50 by Cheng-Prussoff.
T1 construct: calpain-I—isolated from human erythrocytes (Calbiochem #208713); purchased Calbiochem 208713; host or cells: human erythrocytes (native tissue isolate)
T1 sequence (P07384 1-714): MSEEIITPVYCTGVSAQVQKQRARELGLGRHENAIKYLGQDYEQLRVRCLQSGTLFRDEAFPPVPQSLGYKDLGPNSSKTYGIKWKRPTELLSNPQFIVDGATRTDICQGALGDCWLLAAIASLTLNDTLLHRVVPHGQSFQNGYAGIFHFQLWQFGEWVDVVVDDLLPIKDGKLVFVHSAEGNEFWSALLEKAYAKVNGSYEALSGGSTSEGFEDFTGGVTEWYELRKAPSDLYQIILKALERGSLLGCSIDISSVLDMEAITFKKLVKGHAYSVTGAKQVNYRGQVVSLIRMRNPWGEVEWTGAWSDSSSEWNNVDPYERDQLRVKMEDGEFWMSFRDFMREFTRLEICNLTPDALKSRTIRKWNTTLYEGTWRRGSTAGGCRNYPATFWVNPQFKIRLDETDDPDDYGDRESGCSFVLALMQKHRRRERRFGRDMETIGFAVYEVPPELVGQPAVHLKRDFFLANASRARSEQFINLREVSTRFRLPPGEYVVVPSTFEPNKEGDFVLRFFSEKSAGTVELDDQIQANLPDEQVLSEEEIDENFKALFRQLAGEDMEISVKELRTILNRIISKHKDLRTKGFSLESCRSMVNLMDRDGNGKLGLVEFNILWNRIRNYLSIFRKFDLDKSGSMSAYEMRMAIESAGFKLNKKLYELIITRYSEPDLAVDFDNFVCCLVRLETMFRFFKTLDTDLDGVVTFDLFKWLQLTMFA
T1 sequence (P04632 1-268 partner): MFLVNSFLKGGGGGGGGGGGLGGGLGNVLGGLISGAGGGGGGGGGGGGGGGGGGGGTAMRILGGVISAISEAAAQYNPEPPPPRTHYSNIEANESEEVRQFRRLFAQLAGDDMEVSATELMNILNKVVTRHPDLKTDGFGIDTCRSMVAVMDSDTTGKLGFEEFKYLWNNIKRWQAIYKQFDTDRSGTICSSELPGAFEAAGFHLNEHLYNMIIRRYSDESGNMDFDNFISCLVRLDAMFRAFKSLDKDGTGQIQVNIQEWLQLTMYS
Assay type: biochemical
Description: Testing for blockade of the corresponding enzymic activities was carried out by means of kinetic fluorescence assays (excitation 390 nm, emission 460 nm).
Apparent Ki values were calculated from the experimentally determined IC50 values by the Cheng-Prussoff relation assuming a reversible competitive enzyme inhibition.
20 nM calpain-I—isolated from human erythrocytes (Calbiochem #208713), 100 μM Suc-Leu-Tyr-AMC (Bachem #I-1355) as substrate in buffer with 62 mM imidazole, 0.3 mM CaCl2, 0.10% CHAPS, 0.05% BSA, 1 mM DTT at pH 7.3 and room temperature.

| SMILES | Ki |
| --- | --- |
| CC1CCN(Cc2ccn(-c3ncccc3C(=O)NC(Cc3ccccc3)C(=O)C(N)=O)n2)CC1 (stereo not shown) [Example 24, N-(4-Amino-3,4-dioxo-1-phenylbutan-2-yl)-2-(3-((4-methylpiperidin-1-yl)methyl)-1H-pyrazol-1-yl)nicotinamide trifluoroacetate] | < 250 nM |
| CC1CN(Cc2ccn(-c3ncccc3C(=O)NC(Cc3ccccc3)C(=O)C(N)=O)n2)CC(C)O1 (single isomer, unassigned) [Example 2a, N-(4-Amino-3,4-dioxo-1-phenylbutan-2-yl)-2-(3-((2,6-dimethylmorpholino)-methyl)-1H-pyrazol-1-yl)nicotinamide] | < 250 nM |
| NC(=O)C(=O)C(Cc1ccccc1)NC(=O)c1cccnc1-n1ccc(CN2Cc3ccccc3C2)n1 (stereo not shown) [Example 19, N-(4-Amino-3,4-dioxo-1-phenylbutan-2-yl)-2-(3-(isoindolin-2-ylmethyl)-1H-pyrazol-1-yl)nicotinamide] | < 250 nM |
| NC(=O)C(=O)C(Cc1ccccc1)NC(=O)c1cccnc1-n1ccc(CN2CCCCC2)n1 (stereo not shown) [Example 7, N-(4-Amino-3,4-dioxo-1-phenylbutan-2-yl)-2-(3-(piperidin-1-ylmethyl)-1H-pyrazol-1-yl)nicotinamide hydrochloride] | < 250 nM |
| CN(Cc1ccn(-c2ncccc2C(=O)NC(Cc2ccccc2)C(=O)C(N)=O)n1)CC1CCC(C(F)(F)F)CC1 (stereo not shown) [Example 25, N-(4-Amino-3,4-dioxo-1-phenylbutan-2-yl)-2-(3-((methyl((4-(trifluoromethyl)cyclohexyl)methyl)amino)methyl)-1H-pyrazol-1-yl)nicotinamide trifluoroacetate] | < 250 nM |
| NC(=O)C(=O)C(Cc1ccccc1)NC(=O)c1cccnc1-n1ccc(CN2CCCC2)n1 (stereo not shown) [Example 10, N-(4-Amino-3,4-dioxo-1-phenylbutan-2-yl)-2-(3-(pyrrolidin-1-ylmethyl)-1H-pyrazol-1-yl)nicotinamide trifluoroacetate] | 250 to 400 nM |
| NC(=O)C(=O)C(Cc1ccccc1)NC(=O)c1cccnc1-n1ccc(CN2Cc3cccc(F)c3C2)n1 (stereo not shown) [Example 33, N-(4-Amino-3,4-dioxo-1-phenylbutan-2-yl)-2-(3-((4-fluoroisoindolin-2-yl)methyl)-1H-pyrazol-1-yl)nicotinamide trifluoroacetate] | < 250 nM |
| CN(Cc1ccn(-c2ncccc2C(=O)NC(Cc2ccccc2)C(=O)C(N)=O)n1)c1ccccc1 (stereo not shown) [Example 16, N-(4-Amino-3,4-dioxo-1-phenylbutan-2-yl)-2-(3-((methyl(phenyl)amino)methyl)-1H-pyrazol-1-yl)nicotinamide] | < 250 nM |
| NC(=O)C(=O)C(Cc1ccccc1)NC(=O)c1cccnc1-n1ccc(CN2CCN(c3ccccc3)CC2)n1 (stereo not shown) [Example 32, N-(4-Amino-3,4-dioxo-1-phenylbutan-2-yl)-2-(3-((4-phenylpiperazin-1-yl)methyl)-1H-pyrazol-1-yl)nicotinamide trifluoroacetate] | < 250 nM |
| CCN(CC)Cc1ccn(-c2ncccc2C(=O)NC(Cc2ccccc2)C(=O)C(N)=O)n1 (stereo not shown) [Example 18, N-(4-Amino-3,4-dioxo-1-phenylbutan-2-yl)-2-(3-((diethylamino)methyl)-1H-pyrazol-1-yl)nicotinamide trifluoroacetate] | 250 to 400 nM |
| NC(=O)C(=O)C(Cc1ccccc1)NC(=O)c1cccnc1-n1ccc(CN2CCC3(CC2)COC3)n1 (stereo not shown) [Example 17, 2-(3-(2-Oxa-7-azaspiro[3.5]nonan-7-ylmethyl)-1H-pyrazol-1-yl)-N-(4-amino-3,4-dioxo-1-phenylbutan-2-yl)nicotinamide trifluoroacetate] | < 250 nM |
| NC(=O)C(=O)C(Cc1ccccc1)NC(=O)c1cccnc1-n1ccc(CN2CCOC3CCCCC32)n1 (single isomer, unassigned) [Example 8b, 2-(3-((2H-Benzo[b][1,4]oxazin-4(3H,4aH,5H,6H,7H,8H,8aH)-yl)methyl)-1H-pyrazol-1-yl)-N-(4-amino-3,4-dioxo-1-phenylbutan-2-yl)nicotinamide trifluoroacetate] | < 250 nM |
| NC(=O)C(=O)C(Cc1ccccc1)NC(=O)c1cccnc1-n1ccc(CN2CCS(=O)(=O)CC2)n1 (stereo not shown) [Example 34, N-(4-Amino-3,4-dioxo-1-phenyl-2-butanyl)-2-{3-[(1,1-dioxido-4-thiomorpholinyl)methyl]-1H-pyrazol-1-yl}nicotinamide trifluoroacetate] | < 250 nM |
| NC(=O)C(=O)C(Cc1ccccc1)NC(=O)c1cccnc1-n1cc2c(n1)CCN(CC1CC1)C2 (stereo not shown) [Example 41, N-(4-Amino-3,4-dioxo-1-phenylbutan-2-yl)-2-(5-(cyclopropylmethyl)-4,5,6,7-tetrahydro-2H-pyrazolo[4,3-c]pyridin-2-yl)nicotinamide] | < 250 nM |
| NC(=O)C(=O)C(Cc1ccccc1)NC(=O)c1cccnc1-n1cc2c(n1)CNCC2 (stereo not shown) [Example 46, N-(4-Amino-3,4-dioxo-1-phenyl-2-butanyl)-2-(4,5,6,7-tetrahydro-pyrazolo[3,4-c]pyridin-2-yl)nicotinamide hydrochloride] | < 250 nM |

Now from value to molecule:

| Ki | SMILES |
| --- | --- |
| < 250 nM | NC(=O)C(=O)C(Cc1ccccc1)NC(=O)c1cccnc1-n1ccc(CN2CCOC3CCCCC32)n1 (single isomer, unassigned) [Example 8a, 2-(3-((2H-Benzo[b][1,4]oxazin-4(3H,4aH,5H,6H,7H,8H,8aH)-yl)methyl)-1H-pyrazol-1-yl)-N-(4-amino-3,4-dioxo-1-phenylbutan-2-yl)nicotinamide trifluoroacetate] |
| < 250 nM | NC(=O)C(=O)C(Cc1ccccc1)NC(=O)c1cccnc1-n1ccc(CN2CC3C[C@@H](c4ccc(F)cc4)C3C2)n1 (stereo partly drawn) [Example 27, N-(4-Amino-3,4-dioxo-1-phenylbutan-2-yl)-2-(3-(((6R)-6-(4-fluorophenyl)-3-azabicyclo[3.2.0]heptan-3-yl)methyl)-1H-pyrazol-1-yl)nicotinamide trifluoroacetate] |
| < 250 nM | NC(=O)C(=O)C(Cc1ccccc1)NC(=O)c1cccnc1-n1cc2c(n1)CCN(Cc1ccccc1)C2 (stereo not shown) [Example 40, N-(4-Amino-3,4-dioxo-1-phenylbutan-2-yl)-2-(5-benzyl-4,5,6,7-tetrahydro-2H-pyrazolo[4,3-c]pyridin-2-yl)nicotinamide] |
| < 250 nM | CN(Cc1ccccc1)Cc1ccn(-c2ncccc2C(=O)NC(Cc2ccccc2)C(=O)C(N)=O)n1 (stereo not shown) [Example 21, N-(4-Amino-3,4-dioxo-1-phenylbutan-2-yl)-2-(3-((benzyl(methyl)amino)methyl)-1H-pyrazol-1-yl)nicotinamide trifluoroacetate] |
| < 250 nM | NC(=O)C(=O)C(Cc1ccccc1)NC(=O)c1cccnc1-n1ccc(CN2CC3COCC3C2)n1 (stereo not shown) [Example 14, N-(4-Amino-3,4-dioxo-1-phenylbutan-2-yl)-2-(3-((dihydro-1H-furo[3,4-c]pyrrol-5(3H,6H,6aH)-yl)methyl)-1H-pyrazol-1-yl)nicotinamide trifluoroacetate] |
| < 250 nM | CCCCC(NC(=O)c1cccnc1-n1ccc(CN2Cc3ccccc3C2)n1)C(=O)C(N)=O (stereo not shown) [Example 39, N-(1-Amino-1,2-dioxoheptan-3-yl)-2-(3-(isoindolin-2-ylmethyl)-1H-pyrazol-1-yl)nicotinamide] |
| < 250 nM | NC(=O)C(=O)C(Cc1ccccc1)NC(=O)c1cccnc1-n1ccc(CNc2ccccc2)n1 (stereo not shown) [Example 28, N-(4-Amino-3,4-dioxo-1-phenylbutan-2-yl)-2-(3-((phenylamino)methyl)-1H-pyrazol-1-yl)nicotinamide] |
| < 250 nM | NC(=O)C(=O)C(Cc1ccccc1)NC(=O)c1cccnc1-n1ccc(CN2CCc3ccccc3C2)n1 (stereo not shown) [Example 22, N-(4-Amino-3,4-dioxo-1-phenylbutan-2-yl)-2-(3-((3,4-dihydroisoquinolin-2(1H)-yl)methyl)-1H-pyrazol-1-yl)nicotinamide] |
| < 250 nM | NC(=O)C(=O)C(Cc1ccccc1)NC(=O)c1cccnc1-n1ccc(CN2Cc3ccccc3C2=O)n1 (stereo not shown) [Example 36, N-(4-Amino-3,4-dioxo-1-phenylbutan-2-yl)-2-(3-((1-oxoisoindolin-2-yl)methyl)-1H-pyrazol-1-yl)nicotinamide] |
| < 250 nM | CCCCC(NC(=O)c1cccnc1-n1ccc(CN2CCCCC2)n1)C(=O)C(N)=O (stereo not shown) [Example 37, N-(1-Amino-1,2-dioxoheptan-3-yl)-2-(3-(piperidin-1-ylmethyl)-1H-pyrazol-1-yl)nicotinamide] |
